Experimental data taken from publication PMC7156261 (Journal of medicinal chemistry, 2019).

Assays:
TEM-1 β-lactamase G238S = TEM-1 β-lactamase G238S (Escherichia coli, UniProt P62593, G236S); test: DSF shift in Tm after incubation with moxalactam, G238S; type: binding; settings: 100-fold molar excess moxalactam
[1] = target: TEM-1 β-lactamase M182T/G238S (Escherichia coli, UniProt P62593, G236S/M180T); test: DSF shift in Tm after incubation with moxalactam, M182T/G238S; type: binding; settings: 100-fold molar excess moxalactam
TEM-1 β-lactamase M182T = TEM-1 β-lactamase M182T (Escherichia coli, UniProt P62593, M180T); test: DSF shift in Tm after incubation with moxalactam, M182T; type: binding; settings: 100-fold molar excess moxalactam
[2] = target: TEM-1 β-lactamase WT (native enzyme) (Escherichia coli, UniProt P62593); test: DSF shift in Tm after incubation with moxalactam, WT; type: binding; settings: 100-fold molar excess moxalactam
Sor/CR colloids = type: binding; settings: concentration of TEM-1 mutant at which 50% of fluorescent L2gd is displaced; 100 nM 5-MF-L2gd, 20 μM Sor/CR colloids
[3] = van't Hoff enthalpy of unfolding; type: physicochemical; settings: Table S1

Molecule	destabilization (lowering of Tm) (TEM-1 β-lactamase G238S)	effect on Tm [1]	destabilization (lowering of Tm) (TEM-1 β-lactamase M182T)	lowering of Tm [2]	EC50 (Sor/CR colloids)	van't Hoff enthalpy of unfolding [3]
CO[C@@]1(NC(=O)[C@H](C(=O)O)c2ccc(O)cc2)C(=O)N2C(C(=O)O)=C(CSc3nnnn3C)CO[C@@H]21 [moxalactam]	1.9 °C	no substantial effect	4.1 °C	4.5 °C		
WT: wild-type TEM-1 β-lactamase (protein, UniProt P62593 24-286, looked up) Beta-lactamase TEM: HPETLVKVKDAEDQLGARVGYIELDLNSGKILESFRPEERFPMMSTFKVLLCGAVLSRVDAGQEQLGRRIHYSQNDLVEYSPVTEKHLTDGMTVRELCSAAITMSDNTAANLLLTTIGGPKELTAFLHNMGDHVTRLDRWEPELNEAIPNDERDTTMPAAMATTLRKLLTGELLTLASRQQLIDWMEADKVAGPLLRSALPAGWFIADKSGAGERGSRGIIAALGPDGKPSRIVVIYTTGSQATMDERNRQIAEIGASLIKHW					577 ± 303 µM	139.5 kcal/mol
